Data taken from patent US20160340647A1, “COMPOSITIONS AND METHODS FOR INDUCING DIFFERENTIATION OF STEM CELLS” (BIODEMAK LLC, priority 2014, published 2016).

What was measured:
[1] = tested on: GSCs obtained from the U87 cell line; test: Cell differentiation of GSCs (phase contrast morphology, western blot); assay type: cell-based; settings: for cell differentiation of GSCs (FIG. 6): treatment 2, two days
Protocol: (§1) Sulindac was obtained from Sigma.
(§2) Imaging and Immunocytochemistry: • Phase contrast pictures were obtained using an AmScope camera attached to a Nikon TMS microscope. Indirect immunocytochemistry (ICC) was performed as described previously. Briefly, cells were mechanically disaggregated and plated on poly-L-Lysine (PLL). For ICC the following markers were used: Ki67 for proliferative cells; nestin for NSC; beta-tubulin III for neurons; GFAP for astrocytes and 01 for oligodendrocytes. Epifluorescence microscopes (Leica and Nikon) were used for pictures, counting and visualization of the immunocytochemistry. The total number of neurons was quantified by counting a minimum of 15 fields per treatment in triplicates or quadruplicates and normalized vs. non-treated cultures.

[2] = tested on: GSCs obtained from the U87 cell line; test: Cell viability of GSCs after oxidizing agents (CellTiter 96 Aqueous One); settings: for GSC killing in combination with oxidizing agents (FIG. 7): treatment 2, 250 uM epimer, 200 uM TBHP
astrocytes = test: Cell viability of astrocytes after TBHP (CellTiter 96 Aqueous One); assay type: cell-based, mice; settings: astrocytes plated seven days, 48 hours 500 μM sulindac
Source text: To obtain a pure culture of astrocytes, NSCs were differentiated in DMEM+10% FBS (both of Gibco) for seven days, trypsinized and re-plated in a new flask with the same medium. Under these circumstances, close to 100% of the cells become astrocytes (GFAP^+ cells).
as §1
(§3) Background absorbance was subtracted from each sample.

NSCs [3] = test: Cell viability of NSCs after TBHP (CellTiter 96 Aqueous One); assay type: cell-based, mice; settings: TBHP two hours
Protocol: (§4) NSCs were obtained from the hippocampi of PO BL6 mice and cultured in DMEM/F12 medium (Gibco) containing B27 (Gibco), epidermal growth factor (EGF, 20 ng/ml. Invitrogen) and basic fibroblast growth factor (bFGF 10 ng/ml. Peprotech). To induce cell differentiation, NSC where plated on poli-L-lysine (Sigma) were NSC spontaneously differentiate into neurons, astrocytes and oligodendrocytes as previously described (Lopez-Toledano M A & Shelanski M L (2004) J. Neurosci. 24(23):5439-5444).
as §1, §3

NSCs [4] = test: Neuronal differentiation of NSCs (beta-tubulin III immunocytochemistry, number of neurons vs control); assay type: cell-based, mice; settings: treatment 1: floating NSCs 24 hours with 500 microMolar sulindac, plated on PLL another 24 hours
Protocol: as §4, §1, §2

RTP801 levels in GSCs = test: RTP801 levels in GSCs
[5] = tested on: RTP801 levels in U87 cells; test: RTP801 levels in U87 cells; settings: U87 cells treated 72 hours at the same day of plating
[6] = 3 mM As2O3, 30 mM DCA or 400 nM DOX

In the case of `CC(C)Cc1ccc(C(C)C(=O)O)cc1` (centres unmarked) [ibuprofen], the “cell differentiation of GSCs (FIG. 6)” value ([1]; 400 uM) is reported as “no significant differentiation”.

For `CC1=C(CC(=O)O)c2cc(F)ccc2/C1=C\c1ccc([S@@+](C)[O-])cc1` [sulindac R epimer], the “GSC killing in combination with oxidizing agents (FIG. 7)” value [2, 6] was “enhanced killing”.

`CC1=C(CC(=O)O)c2cc(F)ccc2/C1=C\c1ccc([S@+](C)[O-])cc1` [sulindac S-epimer] was tested, and the “GSC killing in combination with oxidizing agents (FIG. 7)” value [2, 6] was “enhanced killing”.

For `CC1=C(CC(=O)O)c2cc(F)ccc2/C1=C\c1ccc(S(C)(=O)=O)cc1` [sulindac sulfone], the “cell differentiation of GSCs (FIG. 6)” value ([1]; 25 uM) was “lower activity”.

`CC1=C(CC(=O)O)c2cc(F)ccc2/C1=C\c1ccc([S+](C)[O-])cc1` (centres unmarked) [sulindac] was tested, and the “effect on TBHP-induced cell death of astrocytes” value (astrocytes) was “very similar protection”, the “GSC sensitivity to different oxidative agents (FIG. 7)” value ([2]; 48 hours, 500 uM sulindac, TBHP, 3 mM As2O3, 30 mM DCA or 400 nM DOX) was “increase GSC sensitivity” and the “effect on TBHP-induced cell death of floating undifferentiated GSCs” value ([2]; treatment 1, 500 μM sulindac 24 hours, TBHP two hours) was “no effect”. For the same compound, the “effect on TBHP-induced cell death of plated GSCs” value ([2]; treatment 2, 500 μM sulindac, TBHP two hours) was “increased TBHP-induced cell death”, the “effect on TBHP-induced death of NSCs” value (NSCs [3]; treatment 1, floating NSCs, 500 μM sulindac) was “protected floating NSCs from TBHP-induced death” and the “effect on TBHP-induced cell death of NSCs” value (NSCs [3]; treatment 2, plated NSCs, 500 μM sulindac 48 hours) was “complete protection against TBHP-induced cell death”. For the same compound, the “number of neurons (beta-tubulin III+) vs vehicle” value (NSCs [4]) was “significant increase in the number of neurons”, the “change of RTP801 levels” value (RTP801 levels in GSCs; GSCs at 0+72 (both floating and plated), 0+3 and 0+6) was “increase” and the “change of RTP801 levels” value (RTP801 levels in GSCs; GSCs, sulindac added at the 3rd dpp for 3 days) was “decrease in RTP801”. For the same compound, the “neuronal differentiation of GSC by Western blot (nestin, DCX, actin)” value ([1]; 500 microMolar sulindac) was “higher neuronal differentiation”, the “cell differentiation of GSCs (morphology) vs vehicle” value ([1]; treatment 1: floating GSCs 24 hours with 500 microMolar sulindac, plated on PLL another 24 hours) was “clear differentiation effect” and the “cell differentiation of GSCs (FIG. 6)” value ([1]; 500 uM) was “lower activity”. The “change of RTP801 levels” value [5] was “reduction in RTP801 levels”.
